# Experimental data from patent US8124780B2, “Benzimidazole compound” (priority 2005, dated 2012).
# Counter-ions that a name gives are not always drawn. Like-named read-outs stand apart in the source and are kept apart here.
# Tested on: gastric acid secretion
# Test: animal or person
# Assay type: in vivo, dog
# Settings: iv; for Inhibitory effect against gastric acid secretion (%) / Persistency of inhibitory effect against gastric acid secretion (%): dog, in vivo, 1.6 mg/kg; for inhibition in vivo at 1.6 mg/kg / inhibition in vivo at 0.8 mg/kg: Canis lupus familiaris
# [1] = 24 h, read-out: Persistency of inhibitory effect against gastric acid secretion (%)
# [2] = read-out: Inhibitory effect against gastric acid secretion (%)
Structure (SMILES),Inhibitory effect against gastric acid secretion (%),Persistency of inhibitory effect against gastric acid secretion (%),inhibition in vivo at 1.6 mg/kg [1] [%],inhibition in vivo at 1.6 mg/kg [2] [%],inhibition in vivo at 0.8 mg/kg [1] [%],inhibition in vivo at 0.8 mg/kg [2] [%]
"Cc1c(OCC23COC(C)(OC2)OC3)ccnc1C[S+]([O-])c1nc2ccccc2[n-]1.[Na+] (stereo not drawn) [Example 24, 2-(((3-methyl-4-((1-methyl-2,6,7-trioxabicyclo[2.2.2]oct-4-yl)methoxy)pyridin-2-yl)methyl)sulfinyl)-1H-benzimidazole sodium salt]",88,80,,,,
"Cc1c(OC2COC(C)(C)OC2)ccnc1C[S+]([O-])c1nc2ccccc2[nH]1 (stereo not drawn) [Example 26, 2-(((4-((2,2-dimethyl-1,3-dioxan-5-yl)oxy)-3-methylpyridin-2-yl)methyl)sulfinyl)-1H-benzimidazole sodium salt]",,,80,100,,
"Cc1c(OC2CCC3(CC2)OCCO3)ccnc1C[S+]([O-])c1nc2ccccc2[nH]1 (stereo not drawn) [Example 27, 2-(((4-(1,4-dioxaspiro[4.5]dec-8-yloxy)-3-methylpyridin-2-yl)methyl)sulfinyl)-1H-benzimidazole sodium salt]",,,92,100,,
"Cc1c(OCCC2COC(C)(C)OC2)ccnc1C[S+]([O-])c1nc2ccccc2[nH]1 (stereo not drawn) [Example 28, 2-(((4-(2-(2,2-dimethyl-1,3-dioxan-5-yl)ethoxy)-3-methylpyridin-2-yl)methyl)sulfinyl)-1H-benzimidazole sodium salt]",,,77,94,,
"CCC12OCC(COc3ccnc(C[S+]([O-])c4nc5ccccc5[n-]4)c3C)(CO1)CO2.[Na+] (stereo not drawn) [Example 29, 2-(((4-((1-ethyl-2,6,7-trioxabicyclo[2.2.2]oct-4-yl)methoxy)-3-methylpyridin-2-yl)methyl)sulfinyl)-1H-benzimidazole sodium salt]",100,87,,,,
"Cc1c(OCCC2(C)OCCCO2)ccnc1C[S+]([O-])c1nc2ccccc2[nH]1 (stereo not drawn) [Example 30, 2-(((3-methyl-4-(2-(2-methyl-1,3-dioxan-2-yl)ethoxy)pyridin-2-yl)methyl)sulfinyl)-1H-benzimidazole sodium salt]",,,95,100,63,100
"Cc1c(OCCC2COC3(CCC3)OC2)ccnc1C[S+]([O-])c1nc2ccccc2[nH]1 (stereo not drawn) [Example 31, 2-(((4-(2-(5,9-dioxaspiro[3.5]non-7-yl)ethoxy)-3-methylpyridin-2-yl)methyl)sulfinyl)-1H-benzimidazole sodium salt]",,,97,100,,
"Cc1c(OCC2OCCCO2)ccnc1C[S+]([O-])c1nc2ccccc2[nH]1 (stereo not drawn) [Example 32, 2-(((4-(1,3-dioxan-2-ylmethoxy)-3-methylpyridin-2-yl)methyl)sulfinyl)-1H-benzimidazole sodium salt]",,,83,100,,
"Cc1c(OCC2(C)OCCCO2)ccnc1C[S+]([O-])c1nc2ccccc2[nH]1 (stereo not drawn) [Example 33, 2-(((3-methyl-4-((2-methyl-1,3-dioxan-2-yl)methoxy)pyridin-2-yl)methyl)sulfinyl)-1H-benzimidazole sodium salt]",,,84,100,,
"Cc1c(OCCC2(C)OCC(C)(C)CO2)ccnc1C[S+]([O-])c1nc2ccccc2[nH]1 (stereo not drawn) [Example 34, 2-(((3-methyl-4-(2-(2,5,5-trimethyl-1,3-dioxan-2-yl)ethoxy)pyridin-2-yl)methyl)sulfinyl)-1H-benzimidazole sodium salt]",,,78,100,,
"COCC1(CCOc2ccnc(C[S+]([O-])c3nc4ccccc4[nH]3)c2C)OCCCO1 (stereo not drawn) [Example 36, 2-(((4-(2-(2-(methoxymethyl)-1,3-dioxan-2-yl)ethoxy)-3-methylpyridin-2-yl)methyl)sulfinyl)-1H-benzimidazole sodium salt]",,,90,100,,
"CCC1(CCOc2ccnc(C[S+]([O-])c3nc4ccccc4[nH]3)c2C)OCCO1 (stereo not drawn) [Example 39, 2-(((4-(2-(2-ethyl-1,3-dioxolan-2-yl)ethoxy)-3-methylpyridin-2-yl)methyl)sulfinyl)-1H-benzimidazole sodium salt]",,,86,100,,
"CCC1(COc2ccnc(C[S+]([O-])c3nc4ccccc4[nH]3)c2C)OCCO1 (stereo not drawn) [Example 40, 2-(((4-((2-ethyl-1,3-dioxolan-2-yl)methoxy)-3-methylpyridin-2-yl)methyl)sulfinyl)-1H-benzimidazole sodium salt]",,,92,100,66,99
"CCC1(CCOc2ccnc(C[S+]([O-])c3nc4c(C)cccc4[nH]3)c2C)OCCO1 (stereo not drawn) [Example 41, 2-(((4-(2-(2-ethyl-1,3-dioxolan-2-yl)ethoxy)-3-methylpyridin-2-yl)methyl)sulfinyl)-4-methyl-1H-benzimidazole sodium salt]",,,85,100,,
"CCC1(COc2ccnc(C[S+]([O-])c3nc4ccccc4[nH]3)c2C)OCCCO1 (stereo not drawn) [Example 42, 2-(((4-((2-ethyl-1,3-dioxan-2-yl)methoxy)-3-methylpyridin-2-yl)methyl)sulfinyl)-1H-benzimidazole sodium salt]",,,,,72,60
"Cc1c(OCC2OCC(F)(F)CO2)ccnc1C[S+]([O-])c1nc2ccccc2[nH]1 (stereo not drawn) [Example 46, 2-(((4-((5,5-difluoro-1,3-dioxan-2-yl)methoxy)-3-methylpyridin-2-yl)methyl)sulfinyl)-1H-benzimidazole sodium salt]",,,,,95,100
"Cc1ccc2[nH]c([S+]([O-])Cc3nccc(OCCC4COC(C)(C)O4)c3C)nc2c1 (stereo not drawn) [Example 47, 2-(((4-(2-(2,2-dimethyl-1,3-dioxolan-4-yl)ethoxy)-3-methylpyridin-2-yl)methyl)sulfinyl)-5-methyl-1H-benzimidazole sodium salt]",,,87,100,,
"[O-][S+](Cc1cc(OCC2OCC3(CC3)CO2)ccn1)c1nc2ccccc2[nH]1 (stereo not drawn) [Example 50, 2-(((4-(5,7-dioxaspiro[2.5]oct-6-ylmethoxy)pyridin-2-yl)methyl)sulfinyl)-1H-benzimidazole sodium salt]",,,,,80,79
"CCc1c(OCC2COC(C)(C)O2)ccnc1C[S+]([O-])c1nc2ccccc2[nH]1 (stereo not drawn) [Example 51, 2-(((4-((2,2-dimethyl-1,3-dioxolan-4-yl)methoxy)-3-ethylpyridin-2-yl)methyl)sulfinyl)-1H-benzimidazole sodium salt]",,,83,100,,
"Cc1c(OCC2COC(C)(C)O2)ccnc1C[S+]([O-])c1nc2cc(F)ccc2[nH]1 (stereo not drawn) [Example 52, 2-(((4-((2,2-dimethyl-1,3-dioxolan-4-yl)methoxy)-3-methylpyridin-2-yl)methyl)sulfinyl)-5-fluoro-1H-benzimidazole sodium salt]",,,87,100,,
"Cc1c(OCC2COCOC2)ccnc1C[S+]([O-])c1nc2ccccc2[nH]1 (stereo not drawn) [Example 53, 2-(((4-(1,3-dioxan-5-ylmethoxy)-3-methylpyridin-2-yl)methyl)sulfinyl)-1H-benzimidazole sodium salt]",,,,,87,99
"Cc1ccc2[nH]c([S+]([O-])Cc3nccc(OCC4COC(C)(C)OC4)c3C)nc2c1 (stereo not drawn) [Example 55, 2-(((4-((2,2-dimethyl-1,3-dioxan-5-yl)methoxy)-3-methylpyridin-2-yl)methyl)sulfinyl)-5-methyl-1H-benzimidazole sodium salt]",,,,,75,83
"Cc1cnc(C[S+]([O-])c2nc3cc(F)ccc3[nH]2)c(C)c1OCC1COC(C)(C)OC1 (stereo not drawn) [Example 56, 2-(((4-((2,2-dimethyl-1,3-dioxan-5-yl)methoxy)-3,5-dimethylpyridin-2-yl)methyl)sulfinyl)-5-fluoro-1H-benzimidazole sodium salt]",,,,,74,84
"[O-][S+](Cc1cc(OCC2COC3(CCC3)OC2)ccn1)c1nc2ccccc2[nH]1 (stereo not drawn) [Example 57, 2-(((4-(5,9-dioxaspiro[3.5]non-7-ylmethoxy)pyridin-2-yl)methyl)sulfinyl)-1H-benzimidazole sodium salt]",,,,,83,98
"[O-][S+](Cc1cc(OCC2COC3(CCCC3)OC2)ccn1)c1nc2ccccc2[nH]1 (stereo not drawn) [Example 58, 2-(((4-(6,10-dioxaspiro[4.5]dec-8-ylmethoxy)pyridin-2-yl)methyl)sulfinyl)-1H-benzimidazole sodium salt]",,,,,77,95
"[O-][S+](Cc1cc(OCC2COC(CF)(CF)OC2)ccn1)c1nc2ccccc2[nH]1 (stereo not drawn) [Example 59, 2-(((4-((2,2-bis(fluoromethyl)-1,3-dioxan-5-yl)methoxy)pyridin-2-yl)methyl)sulfinyl)-1H-benzimidazole sodium salt]",,,,,77,89
"[O-][S+](Cc1cc(OCC2COC3(CCOCC3)OC2)ccn1)c1nc2ccccc2[nH]1 (stereo not drawn) [Example 60, 2-(((4-(1,5,9-trioxaspiro[5.5]undec-3-ylmethoxy)pyridin-2-yl)methyl)sulfinyl)-1H-benzimidazole sodium salt]",,,,,74,89
"Cc1c(OCC2COc3ccccc3O2)ccnc1C[S+]([O-])c1nc2ccccc2[nH]1 (stereo not drawn) [Example 61, 2-(((4-(2,3-dihydro-1,4-benzodioxin-2-ylmethoxy)-3-methylpyridin-2-yl)methyl)sulfinyl)-1H-benzimidazole sodium salt]",,,90,100,,
